Assay results taken from ChEMBL document CHEMBL1201862, “PubChem BioAssay data set” (2004).
Where a name gives a salt, the structure may show the parent alone.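 How tested: cells in 96-well plates exposed to compound for 48 hours at five concentrations. GI50 = concentration required for 50% inhibition of growth.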 Activity calls are given as the source filed them. No stated cut-off is given here; in the data, active = GI50 up to about 1.1 µM and inactive = higher.

How the values were obtained:
Assay in all cases: NCI anticancer screen, dose series, 48 h
OVCAR-3 = tested on: OVCAR-3
COLO 205 = tested on: COLO 205
UO-31 = tested on: UO-31
HOP-62 = tested on: HOP-62
LOX IMVI = tested on: LOX IMVI
MDA-MB-435 = tested on: MDA-MB-435
SK-MEL-5 = tested on: SK-MEL-5
HCT-15 = tested on: HCT-15
CCRF-CEM = tested on: CCRF-CEM
SF-268 = tested on: SF-268
Malme-3M = tested on: Malme-3M
A498 = tested on: A498
KM12 = tested on: KM12
SN12C = tested on: SN12C
T47D = tested on: T47D
RXF 393 = tested on: RXF 393
IGROV-1 = tested on: IGROV-1
DU-145 = tested on: DU-145
U-251 = tested on: U-251
HL-60 = tested on: HL-60

Measured: GI50

Cc1cc2nc3c(C#N)c(-c4ccccc4)cc(Nc4cccc(C(F)(F)F)c4)n3c2cc1C
4.73 µM: HCT-15
inactive: OVCAR-3 2.21 µM | COLO 205 4.17 µM | UO-31 5.08 µM | HOP-62 9.98 µM | LOX IMVI 9.12 µM | MDA-MB-435 5.13 µM | SK-MEL-5 3.21 µM | CCRF-CEM 3.6 µM | SF-268 6.97 µM | Malme-3M 7.87 µM | A498 6.05 µM | KM12 4.07 µM | SN12C 3.68 µM | T47D 4.16 µM | RXF 393 5.48 µM

NCCc1cc(O)c(O)cc1O [OXIDOPAMINE HYDROCHLORIDE]
17.1 µM: HCT-15
inactive: IGROV-1 19.3 µM | OVCAR-3 55.7 µM | COLO 205 41.9 µM | UO-31 25.2 µM | HOP-62 22.9 µM | DU-145 17.7 µM | MDA-MB-435 18.9 µM | SK-MEL-5 18.5 µM | CCRF-CEM 3.97 µM | SF-268 21.8 µM | Malme-3M > 100 µM | A498 > 100 µM | KM12 17.5 µM | SN12C 25.3 µM | T47D 23.1 µM | RXF 393 51.4 µM

CCOC(=O)c1c(SCCN2CCCC2)n(-c2ccccc2)c(=S)n(-c2ccccc2)c1=O
2.21 µM: HCT-15
active: CCRF-CEM 0.951 µM
inactive: IGROV-1 2.03 µM | OVCAR-3 1.78 µM | COLO 205 1.84 µM | HOP-62 18.5 µM | U-251 6.14 µM | LOX IMVI 1.82 µM | DU-145 1.68 µM | MDA-MB-435 2.55 µM | SK-MEL-5 3.07 µM | SF-268 4.85 µM | Malme-3M 1.56 µM | A498 10.4 µM | KM12 15.8 µM | SN12C 1.71 µM | T47D 2.72 µM | RXF 393 1.74 µM

Nn1c(CCCCCCCCc2nnc(COc3ccc(Cl)cc3)n2N)nnc1COc1ccc(Cl)cc1
inactive: IGROV-1 > 100 µM | COLO 205 > 100 µM | UO-31 25.4 µM | U-251 > 100 µM | DU-145 > 100 µM | MDA-MB-435 > 100 µM | SK-MEL-5 > 100 µM | SF-268 > 100 µM | Malme-3M > 100 µM | A498 95.1 µM | KM12 > 100 µM | SN12C > 100 µM | RXF 393 > 100 µM
> 100 µM: HCT-15

c1ccc(Nc2nnc(Cn3ccc4ccccc43)s2)cc1
38.5 µM: HCT-15
inactive: IGROV-1 46.9 µM | OVCAR-3 24.5 µM | COLO 205 45.1 µM | UO-31 36.4 µM | HOP-62 29.9 µM | U-251 42.4 µM | LOX IMVI 56 µM | DU-145 92.9 µM | MDA-MB-435 83.2 µM | SK-MEL-5 57.4 µM | CCRF-CEM 49.3 µM | SF-268 56.8 µM | A498 > 100 µM | KM12 34.5 µM | SN12C > 100 µM | T47D 27.7 µM | RXF 393 73.5 µM

c1ccc2c(c1)nc1n2CCCn2ccnc2-1
inactive: IGROV-1 > 100 µM | OVCAR-3 > 100 µM | COLO 205 > 100 µM | UO-31 99.3 µM | HOP-62 > 100 µM | U-251 > 100 µM | LOX IMVI > 100 µM | DU-145 > 100 µM | SK-MEL-5 87.3 µM | SF-268 > 100 µM | Malme-3M > 100 µM | A498 > 100 µM | KM12 > 100 µM | SN12C > 100 µM | T47D 57.3 µM | RXF 393 > 100 µM
active: HL-60 0.225 µM
41.1 µM: HCT-15

CCOC(=O)N1CCN(c2ccc3ccc(N)nc3n2)CC1
> 100 µM: HCT-15
inactive: IGROV-1 > 100 µM | OVCAR-3 > 100 µM | COLO 205 > 100 µM | UO-31 > 100 µM | HOP-62 > 100 µM | U-251 > 100 µM | LOX IMVI > 100 µM | DU-145 > 100 µM | HL-60 > 100 µM | MDA-MB-435 > 100 µM | CCRF-CEM 50.1 µM | SF-268 > 100 µM | Malme-3M > 100 µM | KM12 > 100 µM | SN12C > 100 µM

Cc1ccc(Cl)c2c(=O)c3ccc(N)cc3sc12
inactive: IGROV-1 10 µM | OVCAR-3 20 µM | COLO 205 16.6 µM | UO-31 13.9 µM | HOP-62 19.7 µM | DU-145 26.1 µM | HL-60 2.99 µM | SK-MEL-5 17.5 µM | CCRF-CEM 14.7 µM | SF-268 27.9 µM | A498 17 µM | KM12 14.7 µM | SN12C 15.7 µM | T47D 18.9 µM | RXF 393 22.1 µM
21.1 µM: HCT-15
